# Legend:
# Assay type in all cases: cell-based
# [1] = molecular target: proteins of U3A human fibrosarcoma cells (4462 proteins detected) (Homo sapiens, UniProt O60885); conditions: protein BRD4; soluble abundance after heat, U3A cells
# [2] = molecular target: proteins of U3A human fibrosarcoma cells (4462 proteins detected) (Homo sapiens, UniProt O75347); conditions: protein TBCA, U3A cells
# [3] = molecular target: proteins of U3A human fibrosarcoma cells (4462 proteins detected) (Homo sapiens, UniProt O76061); conditions: protein STC2; U3A cells
# proteins of U3A human fibrosarcoma cells (4462 proteins detected) (Homo sapiens, UniProt O76061), sequence (O76061 25-302): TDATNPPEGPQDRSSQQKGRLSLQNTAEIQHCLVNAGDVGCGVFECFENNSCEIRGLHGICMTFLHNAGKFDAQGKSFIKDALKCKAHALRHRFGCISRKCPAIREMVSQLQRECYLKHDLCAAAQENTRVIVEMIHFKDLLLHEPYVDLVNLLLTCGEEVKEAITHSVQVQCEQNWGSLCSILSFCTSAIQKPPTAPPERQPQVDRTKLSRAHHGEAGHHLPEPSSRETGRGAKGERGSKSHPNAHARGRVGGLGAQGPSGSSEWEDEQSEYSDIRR
# [4] = molecular target: proteins of U3A human fibrosarcoma cells (4462 proteins detected) (Homo sapiens, UniProt P06748); conditions: protein NPM1; U3A cells
# [5] = molecular target: proteins of U3A human fibrosarcoma cells (4462 proteins detected) (Homo sapiens, UniProt P21266); conditions: protein GSTM3, U3A cells
# [6] = molecular target: proteins of U3A human fibrosarcoma cells (4462 proteins detected) (Homo sapiens, UniProt P22059); conditions: protein OSBP; soluble abundance after heat, U3A cells
# [7] = molecular target: proteins of U3A human fibrosarcoma cells (4462 proteins detected) (Homo sapiens, UniProt P28482); conditions: protein MAPK1; soluble abundance after heat, U3A cells
# [8] = molecular target: proteins of U3A human fibrosarcoma cells (4462 proteins detected) (Homo sapiens, UniProt P29353); conditions: protein SHC1; U3A cells
# proteins of U3A human fibrosarcoma cells (4462 proteins detected) (Homo sapiens, UniProt P29353), sequence (P29353 whole entry): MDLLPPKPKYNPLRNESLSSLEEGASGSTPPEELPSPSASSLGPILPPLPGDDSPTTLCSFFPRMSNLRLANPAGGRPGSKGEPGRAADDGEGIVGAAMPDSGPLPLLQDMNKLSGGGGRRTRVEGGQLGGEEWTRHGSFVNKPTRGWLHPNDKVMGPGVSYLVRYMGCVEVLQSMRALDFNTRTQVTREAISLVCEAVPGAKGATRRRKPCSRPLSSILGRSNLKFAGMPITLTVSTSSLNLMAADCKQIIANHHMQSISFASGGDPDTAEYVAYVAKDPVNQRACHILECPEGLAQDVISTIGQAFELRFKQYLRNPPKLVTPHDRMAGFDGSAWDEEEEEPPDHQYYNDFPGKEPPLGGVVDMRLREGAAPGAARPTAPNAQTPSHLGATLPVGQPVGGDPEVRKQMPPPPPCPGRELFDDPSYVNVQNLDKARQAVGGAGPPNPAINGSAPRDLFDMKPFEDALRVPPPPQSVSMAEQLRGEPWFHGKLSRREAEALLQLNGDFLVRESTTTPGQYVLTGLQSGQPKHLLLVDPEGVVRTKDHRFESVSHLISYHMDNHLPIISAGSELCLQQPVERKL
# [9] = molecular target: proteins of U3A human fibrosarcoma cells (4462 proteins detected) (Homo sapiens, UniProt P39748); conditions: protein FEN1; U3A, 10 μM, 2 h
# proteins of U3A human fibrosarcoma cells (4462 proteins detected) (Homo sapiens, UniProt P39748), sequence (P39748 whole entry): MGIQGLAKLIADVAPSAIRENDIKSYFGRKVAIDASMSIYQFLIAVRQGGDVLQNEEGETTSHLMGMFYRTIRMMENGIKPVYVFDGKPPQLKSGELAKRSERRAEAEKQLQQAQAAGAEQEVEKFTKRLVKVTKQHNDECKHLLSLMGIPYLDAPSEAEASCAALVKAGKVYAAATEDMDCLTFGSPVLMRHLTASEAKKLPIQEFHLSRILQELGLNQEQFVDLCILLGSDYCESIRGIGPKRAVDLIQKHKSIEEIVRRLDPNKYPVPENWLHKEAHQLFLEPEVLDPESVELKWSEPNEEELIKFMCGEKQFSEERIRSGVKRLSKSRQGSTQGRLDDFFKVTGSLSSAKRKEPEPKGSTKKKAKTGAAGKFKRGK
# [10] = molecular target: proteins of U3A human fibrosarcoma cells (4462 proteins detected) (Homo sapiens, UniProt P49207); conditions: protein RPL34; U3A cells
# [11] = molecular target: proteins of U3A human fibrosarcoma cells (4462 proteins detected) (Homo sapiens, UniProt P51532); conditions: protein SMARCA4; U3A cells
# proteins of U3A human fibrosarcoma cells (4462 proteins detected) (Homo sapiens, UniProt P51532), sequence (P51532 whole entry): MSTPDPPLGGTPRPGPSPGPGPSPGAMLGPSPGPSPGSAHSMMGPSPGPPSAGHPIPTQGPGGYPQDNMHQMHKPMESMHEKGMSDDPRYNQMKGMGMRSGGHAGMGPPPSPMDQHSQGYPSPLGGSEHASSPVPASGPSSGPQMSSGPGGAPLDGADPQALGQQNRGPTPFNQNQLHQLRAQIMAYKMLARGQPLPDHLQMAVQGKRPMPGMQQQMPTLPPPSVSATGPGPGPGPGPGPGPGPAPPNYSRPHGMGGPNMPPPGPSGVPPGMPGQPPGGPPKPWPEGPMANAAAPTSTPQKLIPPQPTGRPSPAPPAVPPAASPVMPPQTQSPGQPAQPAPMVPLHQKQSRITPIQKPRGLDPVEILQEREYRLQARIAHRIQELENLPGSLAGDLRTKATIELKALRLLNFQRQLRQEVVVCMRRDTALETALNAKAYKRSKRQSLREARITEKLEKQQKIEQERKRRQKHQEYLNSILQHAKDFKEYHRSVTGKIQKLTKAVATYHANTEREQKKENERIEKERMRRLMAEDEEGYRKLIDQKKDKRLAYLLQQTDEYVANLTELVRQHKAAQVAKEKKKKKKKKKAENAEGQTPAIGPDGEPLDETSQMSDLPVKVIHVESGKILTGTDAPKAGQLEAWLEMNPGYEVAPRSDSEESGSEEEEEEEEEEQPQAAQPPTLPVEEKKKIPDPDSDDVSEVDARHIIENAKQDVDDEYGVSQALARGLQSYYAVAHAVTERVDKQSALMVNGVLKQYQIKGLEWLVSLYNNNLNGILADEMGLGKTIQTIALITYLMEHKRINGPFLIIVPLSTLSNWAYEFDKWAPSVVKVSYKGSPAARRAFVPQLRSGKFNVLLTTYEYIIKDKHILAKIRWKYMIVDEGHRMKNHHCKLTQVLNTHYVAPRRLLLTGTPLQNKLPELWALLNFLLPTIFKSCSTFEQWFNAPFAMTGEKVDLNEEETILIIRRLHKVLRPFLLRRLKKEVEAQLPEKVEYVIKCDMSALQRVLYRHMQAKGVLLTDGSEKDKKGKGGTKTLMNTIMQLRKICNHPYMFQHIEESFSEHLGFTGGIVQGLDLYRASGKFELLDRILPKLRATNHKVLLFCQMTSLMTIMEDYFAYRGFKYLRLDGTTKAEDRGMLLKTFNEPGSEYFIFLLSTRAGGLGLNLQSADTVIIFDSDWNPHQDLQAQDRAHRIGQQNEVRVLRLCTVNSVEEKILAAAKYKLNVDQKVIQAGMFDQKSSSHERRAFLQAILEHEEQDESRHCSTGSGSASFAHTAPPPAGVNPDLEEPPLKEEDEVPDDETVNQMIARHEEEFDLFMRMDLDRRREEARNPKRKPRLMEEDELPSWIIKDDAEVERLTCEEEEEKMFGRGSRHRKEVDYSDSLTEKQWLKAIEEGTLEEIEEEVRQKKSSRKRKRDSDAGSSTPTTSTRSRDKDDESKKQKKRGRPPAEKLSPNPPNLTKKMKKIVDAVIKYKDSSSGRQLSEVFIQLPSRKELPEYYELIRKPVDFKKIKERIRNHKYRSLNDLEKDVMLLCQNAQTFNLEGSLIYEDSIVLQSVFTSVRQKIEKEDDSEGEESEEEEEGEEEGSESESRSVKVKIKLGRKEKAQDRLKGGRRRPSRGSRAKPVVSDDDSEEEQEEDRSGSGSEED
# [12] = molecular target: proteins of U3A human fibrosarcoma cells (4462 proteins detected) (Homo sapiens, UniProt P57768); conditions: protein SNX16; U3A, 10 μM, 2 h
# proteins of U3A human fibrosarcoma cells (4462 proteins detected) (Homo sapiens, UniProt P57768), sequence (P57768 whole entry): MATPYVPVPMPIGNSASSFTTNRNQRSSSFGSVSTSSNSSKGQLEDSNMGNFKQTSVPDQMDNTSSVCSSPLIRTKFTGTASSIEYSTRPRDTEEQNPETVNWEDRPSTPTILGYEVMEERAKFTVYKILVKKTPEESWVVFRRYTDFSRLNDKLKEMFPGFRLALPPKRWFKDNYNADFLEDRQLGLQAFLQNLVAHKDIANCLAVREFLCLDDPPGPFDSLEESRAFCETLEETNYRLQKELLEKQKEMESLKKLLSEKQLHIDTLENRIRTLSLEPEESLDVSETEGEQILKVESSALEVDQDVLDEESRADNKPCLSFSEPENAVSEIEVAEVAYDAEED
# [13] = molecular target: proteins of U3A human fibrosarcoma cells (4462 proteins detected) (Homo sapiens, UniProt P61081); conditions: protein UBE2M; U3A cells
# proteins of U3A human fibrosarcoma cells (4462 proteins detected) (Homo sapiens, UniProt P61081), sequence (P61081 whole entry): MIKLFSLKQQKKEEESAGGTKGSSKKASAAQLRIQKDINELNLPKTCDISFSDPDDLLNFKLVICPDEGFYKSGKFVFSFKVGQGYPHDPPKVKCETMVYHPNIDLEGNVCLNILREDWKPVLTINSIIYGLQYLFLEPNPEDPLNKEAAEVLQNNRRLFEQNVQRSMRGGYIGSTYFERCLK
# [14] = molecular target: proteins of U3A human fibrosarcoma cells (4462 proteins detected) (Homo sapiens, UniProt P62937); conditions: protein PPIA
# proteins of U3A human fibrosarcoma cells (4462 proteins detected) (Homo sapiens, UniProt P62937), sequence (P62937 whole entry): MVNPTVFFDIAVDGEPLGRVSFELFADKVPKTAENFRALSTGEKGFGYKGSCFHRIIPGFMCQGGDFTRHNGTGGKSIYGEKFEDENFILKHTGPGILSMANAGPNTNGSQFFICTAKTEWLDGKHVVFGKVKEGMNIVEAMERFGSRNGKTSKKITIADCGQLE
# [15] = molecular target: proteins of U3A human fibrosarcoma cells (4462 proteins detected) (Homo sapiens, UniProt Q12905); conditions: protein ILF2; U3A cells
# [16] = molecular target: proteins of U3A human fibrosarcoma cells (4462 proteins detected) (Homo sapiens, UniProt Q13627); conditions: protein DYRK1A, U3A cells
# [17] = molecular target: proteins of U3A human fibrosarcoma cells (4462 proteins detected) (Homo sapiens, UniProt Q6YHU6); conditions: protein THADA; soluble abundance after heat, U3A cells
# [18] = molecular target: proteins of U3A human fibrosarcoma cells (4462 proteins detected) (Homo sapiens, UniProt Q7Z6B0); conditions: protein CCDC91, U3A cells
# [19] = molecular target: proteins of U3A human fibrosarcoma cells (4462 proteins detected) (Homo sapiens, UniProt Q8IWX8); conditions: protein CHERP; soluble abundance after heat, U3A cells
# proteins of U3A human fibrosarcoma cells (4462 proteins detected) (Homo sapiens, UniProt Q8IWX8), sequence (Q8IWX8 whole entry): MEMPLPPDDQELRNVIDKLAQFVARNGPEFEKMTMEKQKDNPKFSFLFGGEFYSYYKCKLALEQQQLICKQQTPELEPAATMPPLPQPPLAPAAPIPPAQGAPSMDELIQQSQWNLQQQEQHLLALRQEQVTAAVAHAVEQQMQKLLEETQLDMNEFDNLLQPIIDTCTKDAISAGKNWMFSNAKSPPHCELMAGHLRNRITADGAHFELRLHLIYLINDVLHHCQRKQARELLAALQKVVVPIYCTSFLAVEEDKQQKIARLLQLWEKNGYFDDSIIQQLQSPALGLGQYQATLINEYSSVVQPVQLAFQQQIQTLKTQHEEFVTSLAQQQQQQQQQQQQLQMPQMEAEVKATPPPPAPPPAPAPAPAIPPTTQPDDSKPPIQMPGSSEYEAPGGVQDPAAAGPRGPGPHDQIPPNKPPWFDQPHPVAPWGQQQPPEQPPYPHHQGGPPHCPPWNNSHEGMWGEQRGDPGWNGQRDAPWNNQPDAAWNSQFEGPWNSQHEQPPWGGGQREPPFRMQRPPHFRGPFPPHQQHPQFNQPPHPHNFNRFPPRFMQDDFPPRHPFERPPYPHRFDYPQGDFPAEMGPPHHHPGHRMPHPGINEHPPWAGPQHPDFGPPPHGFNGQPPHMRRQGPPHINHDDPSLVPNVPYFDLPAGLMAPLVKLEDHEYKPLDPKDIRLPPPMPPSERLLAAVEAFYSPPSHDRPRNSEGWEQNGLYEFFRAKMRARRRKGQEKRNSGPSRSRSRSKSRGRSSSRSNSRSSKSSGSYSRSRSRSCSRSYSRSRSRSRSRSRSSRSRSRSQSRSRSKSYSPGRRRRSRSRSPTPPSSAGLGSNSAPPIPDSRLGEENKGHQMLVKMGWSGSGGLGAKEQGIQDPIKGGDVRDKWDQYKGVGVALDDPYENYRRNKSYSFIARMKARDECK
# [20] = molecular target: proteins of U3A human fibrosarcoma cells (4462 proteins detected) (Homo sapiens, UniProt Q8IYB5); conditions: protein SMAP1; soluble abundance after heat, U3A cells
# proteins of U3A human fibrosarcoma cells (4462 proteins detected) (Homo sapiens, UniProt Q8IYB5), sequence (Q8IYB5 whole entry): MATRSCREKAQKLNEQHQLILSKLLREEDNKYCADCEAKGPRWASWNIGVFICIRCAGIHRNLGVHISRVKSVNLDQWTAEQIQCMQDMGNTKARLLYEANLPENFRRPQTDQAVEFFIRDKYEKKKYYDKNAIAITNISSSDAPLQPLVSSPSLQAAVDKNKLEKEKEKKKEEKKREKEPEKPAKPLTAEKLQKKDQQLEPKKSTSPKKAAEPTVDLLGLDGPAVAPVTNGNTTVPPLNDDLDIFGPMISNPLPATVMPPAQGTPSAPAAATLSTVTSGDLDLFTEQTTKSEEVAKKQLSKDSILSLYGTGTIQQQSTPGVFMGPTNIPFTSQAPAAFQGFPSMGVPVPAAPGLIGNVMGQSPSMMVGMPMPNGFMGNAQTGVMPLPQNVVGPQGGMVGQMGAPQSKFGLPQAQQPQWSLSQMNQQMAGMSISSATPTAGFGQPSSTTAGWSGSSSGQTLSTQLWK
# [21] = molecular target: proteins of U3A human fibrosarcoma cells (4462 proteins detected) (Homo sapiens, UniProt Q8TD30); conditions: protein GPT2; U3A cells
# [22] = molecular target: proteins of U3A human fibrosarcoma cells (4462 proteins detected) (Homo sapiens, UniProt Q8WTT2); conditions: protein NOC3L; U3A cells
# [23] = molecular target: proteins of U3A human fibrosarcoma cells (4462 proteins detected) (Homo sapiens, UniProt Q92973); conditions: protein TNPO1; U3A cells
# [24] = molecular target: proteins of U3A human fibrosarcoma cells (4462 proteins detected) (Homo sapiens, UniProt Q9BQP7); conditions: protein MGME1; soluble abundance after heat, U3A cells
# [25] = molecular target: proteins of U3A human fibrosarcoma cells (4462 proteins detected) (Homo sapiens, UniProt Q9H3P7); conditions: protein ACBD3; U3A, 10 μM, 2 h
# [26] = molecular target: proteins of U3A human fibrosarcoma cells (4462 proteins detected) (Homo sapiens, UniProt Q9NP77); conditions: protein SSU72, U3A cells
# [27] = molecular target: proteins of U3A human fibrosarcoma cells (4462 proteins detected) (Homo sapiens, UniProt Q9NVZ3); conditions: protein NECAP2; U3A cells
# [28] = molecular target: proteins of U3A human fibrosarcoma cells (4462 proteins detected) (Homo sapiens, UniProt Q9NXV6); conditions: protein CDKN2AIP; U3A cells
# [29] = molecular target: proteins of U3A human fibrosarcoma cells (4462 proteins detected) (Homo sapiens, UniProt Q9NZ52); conditions: protein GGA3; soluble abundance after heat, U3A cells
compound,measurement,setting,value
CCc1nc(N)nc(N)c1-c1ccc(Cl)cc1 [pyrimethamine],Log2 (PYR/DMSO),[1],0.14
same,Log2 (PYR/DMSO),[2],-0.04
same,Log2 (PYR/DMSO),[3],0.16
same,Log2 (PYR/DMSO),[4],0.17
same,Log2 (PYR/DMSO),[5],-0.04
same,Log2 (PYR/DMSO),[6],0.14
same,Log2 (PYR/DMSO),[7],0.15
same,Log2 (PYR/DMSO),[8],0.19
same,"Log2 (PYR/DMSO), FEN1",[9],0.23
same,Log2 (PYR/DMSO),[10],0.21
same,Log2 (PYR/DMSO),[11],0.16
same,"Log2 (PYR/DMSO), SNX16",[12],-0.18
same,Log2 (PYR/DMSO),[13],0.19
same,Log2 (PYR/DMSO),[14]; U3A cells,-0.03
same,"Log2 (PYR/DMSO), PPIA","[14]; U3A, 10 μM, 2 h",-0.14
same,Log2 (PYR/DMSO),[15],0.18
same,Log2 (PYR/DMSO),[16],-0.05
same,Log2 (PYR/DMSO),[17],0.15
same,Log2 (PYR/DMSO),[18],-0.04
same,Log2 (PYR/DMSO),[19],0.14
same,Log2 (PYR/DMSO),[20],0.15
same,Log2 (PYR/DMSO),[21],0.16
same,Log2 (PYR/DMSO),[22],0.16
same,Log2 (PYR/DMSO),[23],0.22
same,Log2 (PYR/DMSO),[24],0.14
same,"Log2 (PYR/DMSO), ACBD3",[25],0.24
same,Log2 (PYR/DMSO),[26],-0.04
same,Log2 (PYR/DMSO),[27],0.21
same,Log2 (PYR/DMSO),[28],0.16
same,Log2 (PYR/DMSO),[29],0.14

# — publication PMC8800111 (The Journal of Biological Chemistry, 2021)
